The record followed here is US20200071361A1, “ENGINEERED ANTIMICROBIAL AMPHIPHILIC PEPTIDES AND METHODS OF USE” (priority 2017, published 2020).

What all share (assay): Broth microdilution MIC, clinical isolate panel
In general terms: Broth dilution looks for growth in wells or tubes with falling amounts of substance.

The test system of test [1] is Enterobacter spp. isolates (n = 102). The format is cell-based, Enterobacter aerogenes and E. cloacae. The conditions noted are these: Enterobacter spp. (n = 102). The procedure:
Comparator antibiotics were supplied by Micromyx, and stock solutions were prepared on the first day of testing using solvents recommended by CLSI (1). Stock solutions of all compounds were made at 40× the final testing concentration and stored at −80° C. prior to testing. Information regarding compound source, catalog and lot number, testing concentrations and drug diluent for the comparators and test agent are detailed below in Table 3.
The test organisms evaluated in this study consisted of clinical isolates from the Micromyx Repository and reference isolates from the American Type Culture Collection (ATCC; Manassas, Va.). The clinical isolates were obtained from USA hospitals. Upon initial receipt at Micromyx, the organisms were sub-cultured onto an appropriate agar medium. Following incubation, colonies were harvested from these plates and cell suspensions prepared and frozen at −80° C. with a cryoprotectant. Prior to testing, the isolates were streaked from frozen vials onto Trypticase Soy Agar with 5% sheep blood (Becton Dickenson [BD]; Sparks, Md.; Lot Nos. 7173618, 7166759, 7208688, 72144895, 7228505 and Remel Lenexa, Kans. Lot No. 212574). Plates were incubated at 35° C. overnight.
Mueller Hinton II broth (MHB II; BD; Lot Nos. 6258541 and 7143896) was used for MIC testing of aerobic organisms.
MIC values were determined using a broth microdilution procedure described by CLSI (1, 3). Automated liquid handlers (Multidrop 384, Labsystems, Helsinki, Finland; Biomek 2000 and Biomek FX, Beckman Coulter, Fullerton Calif.) were used to conduct serial dilutions and liquid transfers.
To prepare the drug mother plates, which would provide the serial drug dilutions for the replicate daughter plates, the wells of columns 2-12 of standard 96-well microdilution plates (Costar 3795) were filled with 150 μl of the designated diluent for each row of drug. The test articles and comparator compounds (300 μl at 40× the highest concentration to be tested) were dispensed into the appropriate wells in column 1. The Biomek 2000 was then used to make 2-fold serial dilutions in the mother plates from column 1 through column 11. The wells of Column 12 contained no drug and served as the organism growth control wells for the assay.
The daughter plates were loaded with 185 μL per well of MHB II using the Multidrop 384. The daughter plates were completed on the Biomek FX instrument which transferred 5 µL of drug solution from each well of a mother plate to the corresponding well of each daughter plate in a single step. […]
Plates were stacked 3-4 high, covered with a lid on the top plate, placed in plastic bags, and incubated at 35° C. for 16 to 20 hrs. […] The MIC was read and recorded as the lowest concentration of drug that inhibited visible growth of the organism. […]

Test [2] has as its system Klebsiella pneumoniae isolates (n = 101). It counts as cell-based. The conditions noted are these: Klebsiella pneumoniae (n = 101).
The test system of test [3] is Acinetobacter spp. isolates (n = 104). The format is cell-based. The conditions noted are these: Acinetobacter spp. (n = 104).
The subject of test [4] is Staphylococcus aureus isolates (n = 104). It counts as cell-based. The conditions noted are these: Staphylococcus aureus (n = 104), all methicillin-resistant.
Test [5] concerns Pseudomonas aeruginosa isolates (n = 109). It counts as cell-based. The conditions noted are these: Pseudomonas aeruginosa.
In test [6] the test system is Escherichia coli isolates (n = 101). The format is cell-based. The conditions noted are these: Escherichia coli (n = 101).

≈ marks a conversion by molar mass, not a printed value.

Usually MIC50 stands for the lowest concentration that inhibits either 50% of growth or 50% of the strains tested, depending on the study. The low end stands for higher susceptibility, the high end for lower susceptibility. Broadly, the MIC is the lowest concentration found to suppress growth. Turning to `C[C@H]1COc2c(N3CCN(C)CC3)c(F)cc3c(=O)c(C(=O)O)cn1c23` [Levofloxacin], the “% R (percent of isolates resistant, clinical breakpoints)” value in test [1] is 4.9%; in test [2], “over 60%”; in test [4], “Over 80%”; in test [6] it was around 50%. The MIC50 in test [3] worked out at 8 µg/mL (≈ 22.1 µM); in test [4], 8 µg/mL (≈ 22.1 µM); in test [5], 1 µg/mL (≈ 2.77 µM); in test [6], 4 µg/mL (≈ 11.1 µM). The MIC in test [5] (read-out: Mode (MIC)) came out at 0.25 µg/mL (≈ 0.692 µM).
